In this data set the test system is p3xCPRE/Luc. Kind of data set: Activation of p3xCPRE/Luc by small molecular weight organic compounds (Table 6). It is filed as cell-based, human. Conditions: luciferase activity 16 hours after exposure. The method, then:
In the in vitro assay system described above, a stable HeLa cell line was generated that contains a stably-integrated copy of the CPRE-Luc gene.
HMECs and HeLa cells were transiently transfected with 1 μg of 3xCPRE-Luc and 0.1 μg of pRL-SV40. One day after transfection, cells were treated with the compounds listed in Table 6 Luciferase activities were determined 16 hours after exposure to the compounds. To generate stable HeLa cell lines that contain a stably-integrated copy of the CPRE-Luc gene, HeLa cells were transfected with p3xCPRE-Luc plus pcDNA-LacZ-Hyg (an expression vector containing the hygromycin drug resistance gene) using SuperFeet transfection reagent. Two days after transfection, cells were cultured in hygromycin (400 μg/ml)-containing selection medium until individual colonies were identified. The colonies were expanded and the presence of CPRE-Luc-containing clones was examined by inducible luciferase activity. […]

We go through 15 compounds from patent US7247714B2, “Protection against oxidative stress and inflammation by a cytoprotective response element” (Atherogenics, Inc., priority 2001, dated 2007).

Take `O=C(/C=C/c1ccccc1)c1ccccc1` [B, 1,3-diphenylpropenone]: the “CPRE Activity: concentration to achieve a two-fold induction of CPRE activity over control” value was 25 µM.

As for `COc1ccc(/C=C/C(=O)c2cc(C(C)(C)C)c(OC)c(C(C)(C)C)c2)cc1` [Compound C, 1-(3,5-di-tert-butyl-4-methoxyphenyl)-3-(4-methoxyphenyl)-propenone], the “CPRE Activity: concentration to achieve a two-fold induction of CPRE activity over control” value came to 5 µM.

With `COc1ccc(C(=O)/C=C/c2ccc(-c3cccs3)cc2)cc1OC` [Compound I, 1-(3,4-Dimethoxy-phenyl)-3-(4-thiophen-2-ylphenyl)propenone], the “CPRE Activity: concentration to achieve a two-fold induction of CPRE activity over control” value came to 8 µM.

Consider `COc1c(C(C)(C)C)cc(C(=O)/C=C/c2ccccc2)cc1C(C)(C)C` [D, 1-(3,5-Di-tert-butyl-4-methoxyphenyl)-3-phenyl-propenone], for which the “CPRE Activity: concentration to achieve a two-fold induction of CPRE activity over control” value stood at 2.5 µM.

Consider `CCOc1cc(OCC)c(C(=O)/C=C/c2cc(Br)c(OC)c(OC)c2)cc1OCC` [E, 3-(3-Bromo-4,5-dimethoxyphenyl)-1-(2,4,5-triethoxyphenyl)-propenone], for which the “CPRE Activity: concentration to achieve a two-fold induction of CPRE activity over control” value was determined as 12.5 µM.

With `COc1cc(OC)c(C(=O)/C=C/c2cc(Br)c(OC)c(OC)c2)cc1OC` [F, 1-(3-Bromo-4,5-dimethoxyphenyl)-1-(2,4,5-trimethoxy-phenyl)propenone], the “CPRE Activity: concentration to achieve a two-fold induction of CPRE activity over control” value was found to be 1 µM.

Take `COc1ccc(-c2cccs2)cc1/C=C/C(=O)c1cc(OC)c(OC)c(OC)c1` [H, 3-(2-Methoxy-5-thiophen-2-ylphenyl)-1-(3,4,5-trimethoxy-phenyl)propenone]: the “CPRE Activity: concentration to achieve a two-fold induction of CPRE activity over control” value is 2 µM.

As to `COc1cc2c(cc1OC)C(=O)/C(=C/c1cc(Br)c(OC)c(OC)c1)CC2` [J, 2-(3-Bromo-4,5-dimethoxy-benzylidene)-6,7-dimethoxy-3,4-dihydro-2H-naphthalen-1-one.], the “CPRE Activity: concentration to achieve a two-fold induction of CPRE activity over control” value amounted to 3 µM.

With `COc1ccc(COc2ccc(C(=O)/C=C/c3cc(OC)c(OC)c(OC)c3)cc2OC)cc1` [K], the “CPRE Activity: concentration to achieve a two-fold induction of CPRE activity over control” value stood at 2 µM.

Consider `COc1ccc(-c2cccs2)cc1/C=C/C(=O)c1ccc(OCc2ccccn2)c(OC)c1` [L, 1-[3-Methoxy-4-(pyridin-2-ylmethoxy)-phenyl]-3-(2-methoxy-5-thiophen-2-yl-phenyl)propenone], for which the “CPRE Activity: concentration to achieve a two-fold induction of CPRE activity over control” value was 0.7 µM.

For the compound `COc1cc(OC)c(-c2cc3ccccc3s2)cc1/C=C/C(=O)c1ccc(OC)c(OC)c1` [M, 3-(5-Benzo[b]thiophene-2-yl-2,4-dimethoxy-phenyl)-1-(3,4-dimethoxyphenyl)-propenone], the “CPRE Activity: concentration to achieve a two-fold induction of CPRE activity over control” value came to 2.5 µM.

`COc1cc(OC)c(-c2cc3ccccc3s2)cc1/C=C/C(=O)c1cc(OC)c(OCC(=O)[O-])c(OC)c1.[Na+]` [N, Sodium {4-[3-(5-benzo[b]thiophene-2-yl-2,4-dimethoxy-phenyl)acryloyl]-2,6-dimethoxyphenoxy}-acetate]: the “CPRE Activity: concentration to achieve a two-fold induction of CPRE activity over control” value was determined as 1.4 µM.

Turning to `COc1cc(OC)c(-c2cc3ccccc3s2)cc1/C=C/C(=O)c1cc(OC)c(O)c(OC)c1` [O, 3-(5-Benzo[b]thiophene-2-yl-2,4-dimethoxy-phenyl)-1-(4-hydroxy-3,5-dimethoxyphenyl)-propenone], the “CPRE Activity: concentration to achieve a two-fold induction of CPRE activity over control” value was 0.7 µM.

For `COc1cc(OC)c(-c2cc3ccccc3s2)cc1/C=C/C(=O)c1cc(OC)c([O-])c(OC)c1.[Na+]` [P, Sodium 4-[3-(5-benzo[b]thiophene-2-yl-2,4-dimethoxy-phenyl)acryloyl]-2,6-dimethoxyphenolate], the “CPRE Activity: concentration to achieve a two-fold induction of CPRE activity over control” value stood at 1 µM.

Regarding `COc1cc(/C=C/C(=O)c2ccc(OC)c(OC)c2OC)cc(-c2cc3ccccc3s2)c1OC` [Q, 3-(3-Benzo[b]thiophene-2-yl-4,5-dimethoxy-phenyl)-1-(2,3,4-trimethoxy-phenyl)propenone], the “CPRE Activity: concentration to achieve a two-fold induction of CPRE activity over control” value came out at 2.5 µM.
